Experimental data published in US20140206624A1, “TREATMENT OF LEUKEMIA” (THE BRIGHAM AND WOMEN'S HOSPITAL, INC., priority 2011, published 2014).

Tested on: MLL-AF9 induced AML
Experiment: MLL-AF9 BMT assay, leukemic burden (spleen weight, WBC)
Assay type: in vivo, mouse
Conditions: FoxO1/3/4 floxed
Procedure: MLL-AF9-positive FoxO1/3/4^floxed murine bone marrow (BM) cell recovered from a leukemic primary recipient mousecarrying the Mx1-Cre transgene (Mx1-Cre+) or not (Mx1-Cre−) were transplanted into sub-lethally irradiated secondary recipient mice. Fourteen days following transplant 50% of both Mx1-Cre+ and Mx1-Cre− mice were administered pI-pC and the remaining 50% of mice from each condition were given saline. At the first sign of leukemia all mice from each Mx1-Cre condition status were euthanized (Day 29 for Mx1-Cre−(saline and pI-pC treated) and Day 39 for Mx1-Cre+ (saline & pI-pC-treated)).
After transduction, infected cells were transplanted into lethally irradiated (2 doses of 450rad gIR separated by 12 hours) F1 FVB/C57/Bl6 mice. Recipient mice developed leukemia within 70-80 days with a median survival of 77 days. Mononuclear BM cells recovered from leukemic mice were then transplanted into secondary sub-lethally irradiated recipients. Fourteen days following transplant, secondary recipients were administered intra-peritoneally three doses of saline or 12.5 mg/kg pI-pC (GE Healthcare Life Sciences) every 2 days. Mice were then monitored for external (i.e. moribund) and internal (white blood cell counts) signs of leukemia.
To address whether FoxO1/3/4 are essential to maintain MLL-AF9 induced AML in vivo, a MLL-AF9 bone marrow transplant (BMT) assay was used in a mouse bearing homozygous Lox-P flanked (floxed) alleles of FoxO1/3/4 and the interferon-inducible Mx1-Cre transgene (FoxO1/3/4^floxed; Mx1-Cre+; MLL-AF9). MLL-AF9 transformed FoxO1/3/4^floxed BM cells without the Mx1-Cre transgene (FoxO1/3/4^floxed; Mx1-Cre−; MLL-AF9) were used as controls. Leukemia cells from each context (recovered from primary recipients displaying frank leukemia) were harvested and transplanted into sub-lethally irradiated recipients. Fourteen days post-transplant, secondary recipients receiving FoxO1/3/4^floxed; Mx1-Cre+; MLL-AF9 cells or FoxO1/3/4^floxed; Mx1-Cre−; MLL-AF9 controls were either administered polyinosine-polycytidyline (pI-pC) to induce excision of FoxO1/3/4 floxed alleles or saline control (FIG. 9A). At the first presentation of AML, all mice from each group (Mx1-Cre− versus Mx1-Cre+) were euthanized and assessed for leukemic burden as defined by spleen weight and peripheral white blood cell (WBC) counts. […] In contrast, pI-pC-treated FoxO1/3/4^floxed; Mx1-Cre+; MLL-AF9 transplant mice retained normal spleen weights and WBC counts (FIGS. 9B-D and 10A).

[1] = Mx1-Cre+, MLL-AF9 mice, pI-pC induces excision of FoxO1/3/4

polyinosine-polycytidyline [pI-pC]
WBC counts [1]: normal | spleen weights [1]: normal | lymphoid-myeloid ratio in peripheral blood (Mx1-Cre+, MLL-AF9 mice, data not shown): normal lymphoid-myeloid ratio | splenomegaly and leukocytosis (Mx1-Cre−, MLL-AF9 recipients (no excision)): developed splenomegaly and leukocytosis
